Source: patent US5714576A, “Linear analogs of alpha-msh fragments” (Competitive Technologies, Inc., priority 1997, dated 1998)
Read-outs that look alike come from different tables or passages of the source. Positions of bridges follow the written chain, without caps; N, C: chain ends. Non-standard residues stand in square brackets, D forms with d. Residues, ends and D or L forms follow the SMILES beside them. Nle = CCCC[C@H](N)C(=O)O

Tests used:
Frog (Rana pipiens) Skin = format: cell-based
Protocol: (§1) The biological potencies of alpha-MSH, the linear and cyclic analogues were determined by their ability to stimulate melanosome dispersion in vitro in the frog and lizard bioassays. This in vitro assay provides clear cut dose response curves (between 2.5×10^-11 and 4×10^-10 M) and can detect minimal concentration of alpha-MSH of about 10^-11 M. The assay is based upon the centrifugal dispersion of melanosomes (melanin granules) within the dendritic processes of integumental dermal melanophores leading to darkening of the skin. All the test solutions were prepared via serial dilutions from a stock solution (10^-4 M). The frogs (Rana pipiens) used in these evaluations were obtained from Kons Scientific, Germantown, Wis., and the lizards (Anolis carolinensis) were from the Snake Farm, La Place, La.

[1] = test system: Lizard (Anolis carolinensis) Skin; format: cell-based
Protocol: as §1

[2] = cyclic analogues, alpha-MSH = 1.0

| SMILES | Biological Potency Frog (Frog (Rana pipiens) Skin) | Residual Activity Frog (prolonged action) (Frog (Rana pipiens) Skin; linear analogues) | Biological Potency Lizard [1] | Residual Activity Lizard (prolonged action) ([1]; linear analogues) | Residual Activity Frog (prolonged action) (Frog (Rana pipiens) Skin; cyclic analogues) | Biological Potency Frog (Frog (Rana pipiens) Skin; [2]) | Residual Activity Lizard (prolonged action) ([1]; cyclic analogues) | Biological Potency Lizard [1, 2] |
| --- | --- | --- | --- | --- | --- | --- | --- | --- |
| CCCC[C@H](NC(C)=O)C(=O)N[C@@H](CCC(=O)O)C(=O)N[C@@H](Cc1c[nH]cn1)C(=O)N[C@H](Cc1ccccc1)C(=O)N[C@@H](CCCNC(=N)N)C(=O)N[C@@H](Cc1c[nH]c2ccccc12)C(=O)N[C@@H](CCCN)C(N)=O [Analogue 8] | 0.6 | P(-) | 8.0 | P(-) |  |  |  |  |
| CCCC[C@H](NC(=O)[C@H](CO)NC(=O)[C@H](Cc1ccc(O)cc1)NC(=O)[C@H](CO)NC(C)=O)C(=O)N[C@@H](CCC(=O)O)C(=O)N[C@@H](Cc1c[nH]cn1)C(=O)N[C@H](Cc1ccccc1)C(=O)N[C@@H](CCCNC(=N)N)C(=O)N[C@@H](Cc1c[nH]c2ccccc12)C(=O)N[C@@H](CCCCN)C(=O)NCC(=O)N1CCC[C@H]1C(=O)N[C@H](C(N)=O)C(C)C [Analogue 1] (Ac-SYS[Nle]EH[dF]RWKGPV-NH2) | 6.0 | P(+) | 8.0 | P(-) |  |  |  |  |
| CCCC[C@H](NC(C)=O)C(=O)N[C@@H](CCC(=O)O)C(=O)N[C@@H](Cc1c[nH]cn1)C(=O)N[C@H](Cc1ccccc1)C(=O)N[C@@H](CCCNC(=N)N)C(=O)N[C@@H](Cc1c[nH]c2ccccc12)C(=O)N[C@@H](CCCCN)C(N)=O [Analogue 6] | 0.2 | P(-) | 8.0 | P(-) |  |  |  |  |
| CCCC[C@H](NC(C)=O)C(=O)N[C@@H](CCC(=O)O)C(=O)N[C@@H](Cc1c[nH]cn1)C(=O)N[C@H](Cc1ccccc1)C(=O)N[C@@H](CCCNC(=N)N)C(=O)N[C@@H](Cc1c[nH]c2ccccc12)C(=O)N[C@@H](CCCCN)C(=O)NCC(=O)N1CCC[C@H]1C(=O)N[C@H](C(N)=O)C(C)C [Analogue 3] (Ac-[Nle]EH[dF]RWKGPV-NH2) | 0.8 | P(+) | 8.0 | P(+) |  |  |  |  |
| CCCC[C@H](NC(C)=O)C(=O)N[C@H]1CCC(=O)NCCCC[C@@H](C(=O)NCC(=O)N2CCC[C@H]2C(=O)N[C@H](C(N)=O)C(C)C)NC(=O)[C@H](Cc2c[nH]c3ccccc23)NC(=O)[C@H](CCCNC(=N)N)NC(=O)[C@@H](Cc2ccccc2)NC(=O)[C@H](Cc2c[nH]cn2)NC1=O [Analogue 15] (Ac-[Nle]EH[dF]RWKGPV-NH2; lactam 2-7) |  |  |  |  | p(+) | 1.0 | p(+) | 6.0 |
| CCCC[C@H](NC(C)=O)C(=O)N[C@@H](CC(=O)O)C(=O)N[C@@H](Cc1c[nH]cn1)C(=O)N[C@H](Cc1ccccc1)C(=O)N[C@@H](CCCNC(=N)N)C(=O)N[C@@H](Cc1c[nH]c2ccccc12)C(=O)N[C@@H](CCCCN)C(=O)NCC(=O)N1CCC[C@H]1C(=O)N[C@H](C(N)=O)C(C)C [Analogue 4] (Ac-[Nle]DH[dF]RWKGPV-NH2) | 1.0 | P(+) | 10.0 | P(+) |  |  |  |  |
| CCCC[C@H](NC(=O)[C@H](CO)NC(C)=O)C(=O)N[C@H]1CC(=O)NCCCC[C@@H](C(=O)NCC(=O)N2CCC[C@H]2C(=O)N[C@H](C(N)=O)C(C)C)NC(=O)[C@H](Cc2c[nH]c3ccccc23)NC(=O)[C@H](CCCNC(=N)N)NC(=O)[C@@H](Cc2ccccc2)NC(=O)[C@H](Cc2c[nH]cn2)NC1=O [Analogue 29] (Ac-S[Nle]DH[dF]RWKGPV-NH2; lactam 3-8) |  |  |  |  | p(+) | 9.0 |  |  |
| CCCC[C@H](NC(C)=O)C(=O)N[C@H]1CC(=O)NCCCC[C@@H](C(=O)NCC(N)=O)NC(=O)[C@H](Cc2c[nH]c3ccccc23)NC(=O)[C@H](CCCNC(=N)N)NC(=O)[C@@H](Cc2ccccc2)NC(=O)[C@H](Cc2c[nH]cn2)NC1=O [Analogue 26] (Ac-[Nle]DH[dF]RWKG-NH2; lactam 2-7) |  |  |  |  | p(+) | 5.5 |  |  |
| CCCC[C@H](NC(=O)[C@H](CO)NC(=O)[C@H](Cc1ccc(O)cc1)NC(C)=O)C(=O)N[C@H]1CC(=O)NCCCC[C@@H](C(N)=O)NC(=O)[C@H](Cc2c[nH]c3ccccc23)NC(=O)[C@H](CCCNC(=N)N)NC(=O)[C@@H](Cc2ccccc2)NC(=O)[C@H](Cc2c[nH]cn2)NC1=O [Analogue 23] (Ac-YS[Nle]DH[dF]RWK-NH2; lactam 4-9) |  |  |  |  | p(+) | 0.7 |  |  |
| CCCC[C@H](NC(C)=O)C(=O)N[C@@H](CC(=O)O)C(=O)N[C@@H](Cc1c[nH]cn1)C(=O)N[C@H](Cc1ccccc1)C(=O)N[C@@H](CCCNC(=N)N)C(=O)N[C@@H](Cc1c[nH]c2ccccc12)C(=O)N[C@@H](CCCN)C(N)=O [Analogue 9] | 0.9 |  | 10.0 | P(-) |  |  |  |  |
| CCCC[C@H](NC(=O)[C@H](CO)NC(=O)[C@H](Cc1ccc(O)cc1)NC(=O)[C@H](CO)NC(C)=O)C(=O)N[C@H]1CC(=O)NCCCC[C@@H](C(=O)NCC(=O)N2CCC[C@H]2C(=O)N[C@H](C(N)=O)C(C)C)NC(=O)[C@H](Cc2c[nH]c3ccccc23)NC(=O)[C@H](CCCNC(=N)N)NC(=O)[C@@H](Cc2ccccc2)NC(=O)[C@H](Cc2c[nH]cn2)NC1=O [Analogue 21] (Ac-SYS[Nle]DH[dF]RWKGPV-NH2; lactam 5-10) |  |  |  |  | p(+) | 8.0 |  |  |
| CCCC[C@H](NC(C)=O)C(=O)N[C@@H](CC(=O)O)C(=O)N[C@@H](Cc1c[nH]cn1)C(=O)N[C@@H](Cc1ccccc1)C(=O)N[C@@H](CCCNC(=N)N)C(=O)N[C@@H](Cc1c[nH]c2ccccc12)C(=O)N[C@@H](CCCCN)C(N)=O [Analogue 14] |  |  | 0.08 | P(-) |  |  |  |  |
| CCCC[C@H](NC(C)=O)C(=O)N[C@@H](CC(=O)O)C(=O)N[C@@H](Cc1c[nH]cn1)C(=O)N[C@H](Cc1ccccc1)C(=O)N[C@@H](CCCNC(=N)N)C(=O)N[C@@H](Cc1c[nH]c2ccccc12)C(=O)NCC(N)=O [Analogue 5] | 0.1 | P(-) | 8.0 | P(-) |  |  |  |  |
| CCCC[C@H](NC(C)=O)C(=O)N[C@H]1CC(=O)NC[C@@H](C(N)=O)NC(=O)[C@H](Cc2c[nH]c3ccccc23)NC(=O)[C@H](CCCNC(=N)N)NC(=O)[C@@H](Cc2ccccc2)NC(=O)[C@H](Cc2c[nH]cn2)NC1=O [Analogue 20] |  |  |  |  | p(-) | 0.01 | p(-) | 5.0 |
| CCCC[C@H](NC(C)=O)C(=O)N[C@H]1CCC(=O)NCCCC[C@@H](C(N)=O)NC(=O)[C@H](Cc2c[nH]c3ccccc23)NC(=O)[C@H](CCCNC(=N)N)NC(=O)[C@@H](Cc2ccccc2)NC(=O)[C@H](Cc2c[nH]cn2)NC1=O [Analogue 16] |  |  |  |  | p(+) | 0.5 | p(+) | 9.0 |
| CCCC[C@H](NC(=O)[C@H](CO)NC(=O)[C@H](Cc1ccc(O)cc1)NC(=O)[C@H](CO)NC(C)=O)C(=O)N[C@@H](CC(=O)O)C(=O)N[C@@H](Cc1c[nH]cn1)C(=O)N[C@H](Cc1ccccc1)C(=O)N[C@@H](CCCNC(=N)N)C(=O)N[C@@H](Cc1c[nH]c2ccccc12)C(=O)N[C@@H](CCCCN)C(=O)NCC(=O)N1CCC[C@H]1C(=O)N[C@H](C(N)=O)C(C)C [Analogue 2] (Ac-SYS[Nle]DH[dF]RWKGPV-NH2) | 9.0 | P(+) | 8.0 | P(-) |  |  |  |  |
| CCCC[C@H](NC(=O)[C@H](CO)NC(C)=O)C(=O)N[C@H]1CC(=O)NCCCC[C@@H](C(N)=O)NC(=O)[C@H](Cc2c[nH]c3ccccc23)NC(=O)[C@H](CCCNC(=N)N)NC(=O)[C@@H](Cc2ccccc2)NC(=O)[C@H](Cc2c[nH]cn2)NC1=O [Analogue 24] (Ac-S[Nle]DH[dF]RWK-NH2; lactam 3-8) |  |  |  |  | p(+) | 1.0 |  |  |
| CCCC[C@H](NC(=O)[C@H](CO)NC(=O)[C@H](Cc1ccc(O)cc1)NC(=O)[C@H](CO)NC(C)=O)C(=O)N[C@H]1CC(=O)NCCCC[C@@H](C(N)=O)NC(=O)[C@H](Cc2c[nH]c3ccccc23)NC(=O)[C@H](CCCNC(=N)N)NC(=O)[C@@H](Cc2ccccc2)NC(=O)[C@H](Cc2c[nH]cn2)NC1=O [Analogue 22] (Ac-SYS[Nle]DH[dF]RWK-NH2; lactam 5-10) |  |  |  |  | p(+) | 2.0 |  |  |
| CCCC[C@H](NC(C)=O)C(=O)N[C@H]1CC(=O)NCCCC[C@@H](C(=O)NCC(=O)N2CCC[C@H]2C(=O)N[C@H](C(N)=O)C(C)C)NC(=O)[C@H](Cc2c[nH]c3ccccc23)NC(=O)[C@H](CCCNC(=N)N)NC(=O)[C@@H](Cc2ccccc2)NC(=O)[C@H](Cc2c[nH]cn2)NC1=O [Analogue 28] (Ac-[Nle]DH[dF]RWKGPV-NH2; lactam 2-7) |  |  |  |  | p(+) | 2.0 |  |  |
| CCCC[C@H](NC(C)=O)C(=O)N[C@@H](CC(=O)O)C(=O)N[C@@H](Cc1c[nH]cn1)C(=O)N[C@H](Cc1ccccc1)C(=O)N[C@@H](CCCNC(=N)N)C(=O)N[C@@H](Cc1c[nH]c2ccccc12)C(=O)N[C@@H](CCCCN)C(N)=O [Analogue 7] |  |  | 8.0 | P(-) |  |  |  |  |
| CCCC[C@H](NC(C)=O)C(=O)N[C@H]1CC(=O)NCCCC[C@@H](C(=O)NCC(=O)N2CCC[C@H]2C(N)=O)NC(=O)[C@H](Cc2c[nH]c3ccccc23)NC(=O)[C@H](CCCNC(=N)N)NC(=O)[C@@H](Cc2ccccc2)NC(=O)[C@H](Cc2c[nH]cn2)NC1=O [Analogue 27] (Ac-[Nle]DH[dF]RWKGP-NH2; lactam 2-7) |  |  |  |  | p(+) | 4.0 |  |  |
